In ChEMBL document CHEMBL1201862, “PubChem BioAssay data set” (2004):
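Step 1: Grow cells in 96-well plates. Step 2: Expose to compound for 48 hours at 5 concentrations. Step 3: Interpolate endpoints linearly; if unreached, use highest concentration. At the GI50, growth is halved.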 Calls of active or inactive are those of the source. Rule as the data show it: active = GI50 up to about 1.1 µM and inactive = higher.

Legend:
Assay in all cases: NCI-60 cell line screen, 48 h
[1] = test system: 786-0
[2] = test system: A498
[3] = test system: A549
[4] = test system: CAKI-1
[5] = test system: CCRF-CEM
[6] = test system: HCT-116
[7] = test system: HL-60
[8] = test system: KM12
[9] = test system: LOX IMVI
[10] = test system: MDA-N
[11] = test system: NCI-H226
[12] = test system: NCI-H23
[13] = test system: OVCAR-5
[14] = test system: OVCAR-8
[15] = test system: RXF 393
[16] = test system: SK-MEL-5
[17] = test system: SNB-19
[18] = test system: SW-620
[19] = test system: UACC-257
[20] = test system: UO-31

Measured: GI50

Cc1nc(O)c(Cc2ccccc2O)c(-c2ccccc2)n1
inactive: [1] > 100 µM | [2] > 100 µM | [3] > 100 µM | [4] > 100 µM | [5] 99.3 µM | [6] > 100 µM | [7] > 100 µM | [8] > 100 µM | [9] > 100 µM | [10] > 100 µM | [11] > 100 µM | [12] > 100 µM | [13] > 100 µM | [14] > 100 µM | [15] > 100 µM | [16] > 100 µM | [17] > 100 µM | [18] > 100 µM | [19] > 100 µM | [20] > 100 µM

C=C(C)C1CCC2=CC(CC3(C)OC3C3=CC(C(=O)OC)=C(C1)O3)OC2=O (stereo not given)
inactive: [1] > 100 µM | [2] > 100 µM | [3] > 100 µM | [4] > 100 µM | [5] 83.2 µM | [6] > 100 µM | [7] > 10 µM | [8] 98.4 µM | [9] > 100 µM | [10] > 100 µM | [11] > 100 µM | [12] > 100 µM | [13] > 100 µM | [14] > 100 µM | [15] 52.5 µM | [16] 72.3 µM | [17] > 100 µM | [18] > 100 µM | [19] > 100 µM | [20] > 100 µM

CCCCc1ccc(Nc2nc3c(ncn3COCCBr)c(=O)[nH]2)cc1
inactive: [1] > 100 µM | [2] > 100 µM | [3] > 100 µM | [4] > 100 µM | [5] > 100 µM | [6] > 100 µM | [7] > 100 µM | [8] > 100 µM | [9] > 100 µM | [10] > 100 µM | [11] > 100 µM | [12] > 100 µM | [13] > 100 µM | [14] > 100 µM | [15] 84.5 µM | [16] > 100 µM | [17] > 100 µM | [18] > 100 µM | [19] > 100 µM | [20] > 100 µM

NC(=O)c1ccc(NCC2=CC(=O)C=CC2=O)cc1
inactive: [1] 19.6 µM | [2] 33.9 µM | [3] > 100 µM | [4] 19.1 µM | [5] 7.01 µM | [6] 18.7 µM | [7] 11.5 µM | [8] > 100 µM | [9] 17.5 µM | [10] 17.3 µM | [11] > 100 µM | [12] 25.9 µM | [13] 23 µM | [14] 20.4 µM | [15] 18.7 µM | [16] 15.5 µM | [17] > 100 µM | [18] 21.4 µM | [19] 21.1 µM | [20] 17.3 µM

CCOC(=O)c1c(C)n(Cc2ccccc2)c(=O)c2ccccc2c(=O)c2c(=O)ccc(=O)c1=2
inactive: [1] 27 µM | [2] > 100 µM | [3] > 100 µM | [4] 34.7 µM | [5] 42.1 µM | [6] 18.2 µM | [7] > 100 µM | [8] > 100 µM | [9] 25.2 µM | [10] 73.8 µM | [11] > 100 µM | [12] 62.8 µM | [13] > 100 µM | [14] > 100 µM | [15] 23.8 µM | [16] > 100 µM | [17] > 100 µM | [18] 33.3 µM | [19] > 100 µM | [20] 17.9 µM

CC(=O)N(CN1C(=O)CCC1C(=O)O)c1ccccc1 (stereo not given)
inactive: [1] > 53.8 µM | [2] > 59.7 µM | [3] > 55.1 µM | [4] > 57.3 µM | [5] > 54.2 µM | [6] > 56 µM | [7] > 55.7 µM | [8] > 55.3 µM | [9] > 56.9 µM | [10] > 58.9 µM | [11] > 52.7 µM | [12] > 56.2 µM | [13] > 55.6 µM | [14] > 52.4 µM | [15] > 60.3 µM | [16] > 58.7 µM | [17] > 55.1 µM | [18] > 100 µM | [19] > 54.2 µM | [20] > 56.9 µM

CCN(CC)/C(SCc1ccccc1)=C(\C(Cl)=C(Cl)Cl)[N+](=O)[O-]
inactive: [1] 16 µM | [2] 13.6 µM | [3] 16.6 µM | [4] 28.2 µM | [5] 12.5 µM | [6] 14.7 µM | [7] 15.8 µM | [8] 21 µM | [9] 14.1 µM | [10] 16.4 µM | [11] 18.9 µM | [12] 17.8 µM | [13] 17.9 µM | [14] 16.9 µM | [15] 13.1 µM | [16] 16.3 µM | [17] 28.9 µM | [18] 21.8 µM | [19] 17.5 µM | [20] 18.3 µM

O=C(O)CC/C(=N\Nc1nsc2ccccc12)c1ccc(Cl)cc1
inactive: [1] 17.8 µM | [2] 37 µM | [3] > 49.1 µM | [4] 23.3 µM | [5] 6.84 µM | [6] 17.9 µM | [7] 23.6 µM | [8] 22.9 µM | [9] 12.2 µM | [10] 31.3 µM | [11] > 100 µM | [12] 21.2 µM | [13] 54.5 µM | [14] 43.5 µM | [15] 23.5 µM | [16] 22.2 µM | [17] > 64 µM | [18] 28.6 µM | [19] 25.5 µM | [20] 21.1 µM

O=C/C=C/c1ccco1
inactive: [1] > 100 µM | [2] > 100 µM | [3] > 100 µM | [4] > 100 µM | [5] 9.48 µM | [6] > 100 µM | [7] 5.56 µM | [8] > 100 µM | [9] > 100 µM | [10] > 100 µM | [11] > 100 µM | [12] > 100 µM | [13] > 100 µM | [14] > 100 µM | [15] > 100 µM | [16] > 100 µM | [17] > 100 µM | [18] > 100 µM | [19] > 100 µM | [20] > 100 µM

COC(=O)NC(Cc1ccccc1)NC(=O)OC(C)(C)C (stereo not given)
inactive: [1] > 100 µM | [2] > 100 µM | [3] > 100 µM | [4] > 100 µM | [5] > 100 µM | [6] > 100 µM | [7] > 100 µM | [8] > 100 µM | [9] > 100 µM | [10] > 100 µM | [11] > 100 µM | [12] > 100 µM | [13] > 100 µM | [14] > 100 µM | [15] > 100 µM | [16] > 100 µM | [17] > 100 µM | [18] > 100 µM | [19] > 100 µM | [20] > 100 µM
